Like-named read-outs stand apart in the source and are kept apart here.
Legend:
[1] = target: T1, HCV NS5B RdRp genotype 1b (Hepatitis C virus genotype 1b, UniProt Q9WMX2); test: Modified HCV NS5B RdRp enzyme assay (preincubation protocol); type: biochemical; conditions: HCV NS5B RdRp; determined using the preincubation protocol; read-out: IC50
T1 construct: The protein was expressed with an 18 amino acid C-terminal truncation to enhance the solubility; made in house; host or cells: E. coli BL21(DE3), pET21a
T1 sequence (Q9WMX2 2420-2992): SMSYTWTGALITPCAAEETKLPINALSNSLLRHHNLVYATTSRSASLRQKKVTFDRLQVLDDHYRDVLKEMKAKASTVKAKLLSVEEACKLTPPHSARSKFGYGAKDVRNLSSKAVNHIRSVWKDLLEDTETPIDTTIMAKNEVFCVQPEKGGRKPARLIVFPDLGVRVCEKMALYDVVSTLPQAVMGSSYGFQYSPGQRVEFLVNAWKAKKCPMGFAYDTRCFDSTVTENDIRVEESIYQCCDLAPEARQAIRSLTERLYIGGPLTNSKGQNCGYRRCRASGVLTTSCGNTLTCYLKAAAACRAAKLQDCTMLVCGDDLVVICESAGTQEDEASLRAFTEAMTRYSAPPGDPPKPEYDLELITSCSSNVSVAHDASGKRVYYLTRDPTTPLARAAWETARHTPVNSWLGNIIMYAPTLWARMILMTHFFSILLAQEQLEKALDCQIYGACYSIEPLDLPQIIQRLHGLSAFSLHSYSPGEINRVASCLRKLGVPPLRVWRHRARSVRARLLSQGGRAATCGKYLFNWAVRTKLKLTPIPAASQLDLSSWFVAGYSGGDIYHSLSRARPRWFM
Method: HCV NS5B RdRp cloning, expression, and purification. The cDNA encoding the NS5B protein of HCV, genotype 1b, was cloned into the pET21a expression vector. The protein was expressed with an 18 amino acid C-terminal truncation to enhance the solubility. The E. coli competent cell line BL21(DE3) was used for expression of the protein. Cultures were grown at 37° C. for ˜4 hours until the cultures reached an optical density of 2.0 at 600 nm. The cultures were cooled to 20° C. and induced with 1 mM IPTG. Fresh ampicillin was added to a final concentration of 50 μg/ml and the cells were grown overnight at 20° C.
Cell pellets (3 L) were lysed for purification to yield 15-24 mgs of purified NS5B. The lysis buffer consisted of 20 mM Tris-HCl, pH 7.4, 500 mM NaCl, 0.5% triton X-100, 1 mM DTT, 1 mM EDTA, 20% glycerol, 0.5 mg/ml lysozyme, 10 mM MgCl2, 15 ug/ml deoxyribonuclease I, and Complete TM protease inhibitor tablets (Roche). After addition of the lysis buffer, frozen cell pellets were resuspended using a tissue homogenizer. To reduce the viscosity of the sample, aliquots of the lysate were sonicated on ice using a microtip attached to a Branson sonicator. The sonicated lysate was centrifuged at 100,000×g for 1 hr at 4° C. and filtered through a 0.2 μm filter unit (Corning).
The protein was purified using two sequential chromatography steps: Heparin sepharose CL-6B and polyu sepharose 4B (Pharmacia). The chromatography buffers were identical to the lysis buffer but contained no lysozyme, deoxyribonuclease I, MgCl2 or protease inhibitor and the NaCl concentration of the buffer was adjusted according to the requirements for charging the protein onto the column. Each column was eluted with a NaCl gradient which varied in length from 5-50 column volumes depending on the column type. After the final chromatography step, the resulting purity of the enzyme is >90% based on SDS-PAGE analysis. The enzyme was aliquoted and stored at −80° C.
Standard HCV NS5B RdRp enzyme assay. HCV RdRp genotype 1b assays were run in a final volume of 60 μl in 96 well plates (Corning 3600). The assay buffer is composed of 20 mM Hepes, pH 7.5, 2.5 mM KCl, 2.5 mM MgCl2, 1 mM DTT, 1.6 U RNAse inhibitor (Promega N2515), 0.01 mg/ml BSA (Sigma B6917), and 2% glycerol. All compounds were serially diluted (3-fold) in DMSO and diluted further in water such that the final concentration of DMSO in the assay was 2%. HCV RdRp genotype 1b enzyme was used at a final concentration of 28 nM. A polyA template was used at 6 nM, and a biotinylated oligo-dT 12 primer was used at 180 nM final concentration. Template was obtained commercially (Amersham 27-4110). Biotinylated primer was prepared by Sigma Genosys. 3H-UTP was used at 0.6 μCi (0.29 μM total UTP). Reactions were initiated by the addition of enzyme, incubated at 30° C. for 60 min, and stopped by adding 25 μl of 50 mM EDTA containing SPA beads (4 μg/μl, Amersham RPNQ 0007). Plates were read on a Packard Top Count NXT after >1 hr incubation at room temperature.
Modified HCV NS5B RdRp enzyme assay. A modified enzyme assay was performed essentially as described for the standard enzyme assay except for the following: The biotinylated oligo dT12 primer was precaptured on streptavidin-coated SPA beads by mixing primer and beads in assay buffer and incubating at room temperature for one hour. Unbound primer was removed after centrifugation. The primer-bound beads were resuspended in 20 mM Hepes buffer, pH 7.5 and used in the assay at final concentrations of 20 nM primer and 0.67 μg/μl beads. Order of addition in the assay: enzyme (1.75 nM) was added to diluted compound followed by the addition of a mixture of template (0.36 nM), 3H-UTP (0.6 μCi, 0.29 μM), and primer-bound beads, to initiate the reaction; concentrations given are final. Reactions were allowed to proceed for 4 hours at 30° C.
IC50 values for compounds were determined using seven different [I]. […]

[2] = tested on: HCV replicon cells; test: HCV replicon FRET assay; type: cell-based; conditions: HCV replicon cells, determined using the FRET assay, read-out: EC50
Method: FRET Assay Preparation. The HCV FRET screening assay was performed in 96-well cell culture plates. The FRET peptide (Anaspec, Inc.) (Taliani et al., Anal. Biochem. 1996, 240, 60-67) contains a fluorescence donor, EDANS, near one end of the peptide and an acceptor, DABCYL, near the other end. The fluorescence of the peptide is quenched by […] resonance energy transfer (RET) between the donor and the acceptor, but as the NS3 protease cleaves the peptide the products are released from RET quenching and the fluorescence of the donor becomes apparent. The assay reagent was made as follows: 5× cell Luciferase cell culture lysis reagent from Promega (#E153A) diluted to 1× with dH2O, NaCl added to 150 mM final, the FRET peptide diluted to 20 μM final from a 2 mM stock.
To prepare plates, HCV replicon cells, with or without a Renilla luciferase reporter gene, were trypsinized and plated in a 96-well plate with titrated test compounds added in columns 3 through 12; columns 1 and 2 contained a control compound (HCV control inhibitor), and the bottom row contained cells with DMSO only. The plates were then placed in a CO2 incubator at 37° C.
Assays. Subsequent to addition of the test compounds described above (FRET Assay Preparation), at various times the plate was removed and Alamar blue solution (Trek Diagnostics, #00-100) was added to measure cellular toxicity. After reading in a Cytoflour 4000 instrument (PE Biosystems), plates were rinsed with PBS and then used for FRET assay by the addition of 30 ul of the FRET peptide assay reagent described above (FRET Assay Preparation) per well. The plate was then placed into the Cytoflour 4000 instrument which had been set to 340 excite/490 emission, automatic mode for up to 20 cycles and the plate read in a kinetic mode. Typically, the signal to noise using an endpoint analysis after the reads was at least three-fold. Alternatively, after Alamar blue reading, plates were rinsed with PBS, then used for luciferase assay using the Promega Dual-Glo Luciferase Assay System or the Promega EnduRen Live Cell Substrate assay.
Compound analysis was performed by quantification of the relative HCV replicon inhibition and the relative cytotoxicity values. To calculate cytoxicity values, the average Alamar Blue fluorescence signals from the control wells were set as 100% non-toxic. The individual signals in each of the compound test wells were then divided by the average control signal and multiplied by 100% to determine […]. To calculate the HCV replicon inhibition values, an average background value was obtained from the two wells containing the highest amount of HCV control inhibitor at the end of the assay period. These numbers were similar to those obtained from naïve Huh-7 cells. The background numbers were then subtracted from the average signal obtained from the control wells and this number was used as 100% activity. The individual signals in each of the compound test wells were then divided by the averaged control values after background subtraction and multiplied by 100% to determine percent activity. EC50 values were calculated as the concentration which caused a 50% reduction in FRET or luciferase activity. The two numbers generated for the compound plate, percent cytoxicity and percent activity, were used to determine compounds of interest for further analysis.

Row | Structure (SMILES) | IC50 [1] | EC50 ([2]; Hepatitis C virus) | EC50 [2]
1 | COc1ccc2c(c1)C1CC1(NC(=O)C(=O)N1CCCC1)Cn1c-2c(C2CCCCC2)c2ccc(C(=O)NS(=O)(=O)N(C)C)cc21 (centres unmarked) [drawing 32] | 0.001 to 0.5 µM | 0.001 to 0.5 µM | 
2 | COc1ccc2c(c1)[C@@H]1C[C@]1(NC(=O)C(=O)N1C[C@@H](C)O[C@@H](C)C1)Cn1c-2c(C2CCCCC2)c2ccc(C(=O)NS(=O)(=O)N(C)C)cc21 [drawing 34] | 0.001 to 0.5 µM | 0.001 to 0.5 µM | 
3 | COc1ccc2c(c1)[C@@H]1C[C@]1(NC(=O)C(=O)N(C)C)Cn1c-2c(C2CCCCC2)c2ccc(C(=O)NS(=O)(=O)N(C)C)cc21 [drawing 35] | 0.001 to 0.5 µM | 0.001 to 0.5 µM | 
4 | COc1ccc2c(c1)C1CC1(NC(=O)C(=O)N1CCCC1)Cn1c-2c(C2CCCCC2)c2ccc(C(=O)NS(=O)(=O)N(C)C)cc21 (centres unmarked) [drawing 39] | 0.001 to 0.5 µM |  | 0.001 to 0.5 µM
5 | COc1ccc2c(c1)[C@@H]1C[C@]1(NC(=O)C(=O)N(C)C)Cn1c-2c(C2CCCCC2)c2ccc(C(=O)NS(=O)(=O)N(C)C)cc21 [drawing 40] | 0.001 to 0.5 µM | 0.001 to 0.5 µM | 
6 | COc1ccc2c(c1)[C@H]1C[C@@]1(NC(=O)C(=O)N(C)C)Cn1c-2c(C2CCCCC2)c2ccc(C(=O)NS(=O)(=O)N(C)C)cc21 [drawing 42] | 0.001 to 0.5 µM | 0.001 to 0.5 µM | 
7 | COc1ccc2c(c1)[C@@H]1C[C@]1(NC(=O)C(=O)N1C[C@@H](C)O[C@@H](C)C1)Cn1c-2c(C2CCCCC2)c2ccc(C(=O)NS(=O)(=O)N(C)C)cc21 [drawing 43] | 0.001 to 0.5 µM | 0.001 to 0.5 µM | 
